From patent US9018188B2, “MicroRNA inhibitors” (Ottawa Hospital Research Institute, priority 2011, dated 2015)

Experiments:
Format in all cases: in vivo, mouse
TA muscles = test: High-resolution respirometry on TA muscles after ASO treatment
Source text: To quantify bioenergetic effects of miR-133 ASO induced BAT in muscle, Applicant performed high-resolution respirometry on TA muscles after 2 months of either control- or miR-133 ASO treatment (C57BL/6 male fed on RD, n=6 in each treatment group). […] This marked difference in the response to FA is consistent with reported acute activation of mitochondrial respiration rates in brown adipocytes exposed to fatty acids (Matthias et al., 2000).
Surgically extracted tibialis anterior (TA) and contralateral soleus (SOL) muscles were immediately placed in ice-cold biopsy preservation solution (BIOPS) containing […], 7.23 mM K2EGTA buffer, 0.1 μM free calcium, 20 mM imidazole, 20 mM taurine, 50 mM 2-(N-Morpholino)ethanesulfonic acid hydrate (K-MES), 0.5 mM dithiothreitol (DTT), 6.56 mM […], 5.77 mM ATP, and 15 mM phosphocreatine (pH 7.1). The TA muscle was cut longitudinally into 4 equal parts, 2 of which were assessed by respirometry as intact cells and 2 after chemical permeabilization of the sarcolemma. The SOL muscle was cut in half longitudinally and both sections were permeabilized before respirometry. Prior to permeabilization muscle samples were gently dissected with two pairs of sharp forceps, achieving a high degree of fibre separation verified microscopically. Chemical permeabilization was achieved by incubation of the fibres with saponin (50 μg/mL) in 2 mL of BIOPS for 30 minutes at 4° C. (Gnaiger, 2009b). Permeabilized samples were then rinsed with a mitochondrial respiration medium (MiR05) containing 0.5 mM EGTA, 3 mM MgCl2.6H2O, 60 mM K-lactobionate, 20 mM taurine, 10 mM KH2PO4, 20 mM HEPES, 110 mM sucrose, and 1 g/L bovine serum albumin (pH 7.1).
Muscle bundles (both intact TA, and permeabilized TA and SOL) were blotted and measured for wet weight in a balance controlled for constant relative humidity, providing hydration consistency and stability of weight measurements. Each sample was then placed into a single chamber of the high-resolution Oroboros Oxygraph-2k (Oroboros, Innsbruck, Austria) containing MiR05 solution and measured at 37° C. The Oxygraph is a two-chamber titration-injection respirometer with an oxygen detection limit of up to 0.5 pmol·sec^−1·mL^−1. Standardized instrumental calibrations were performed to correct for back-diffusion of oxygen into the chamber from the various components, leak from the exterior, and sensor oxygen consumption. Oxygen flux was resolved by software allowing nonlinear changes in the negative time derivative of the oxygen concentration signal (Oxygraph 2k, Oroboros, Innsbruck, Austria).
Leak respiration was induced with the addition of malate (2 mM) and octanoyl carnitine (0.2 mM). This state represents the oxygen consumption of an unaltered and intact electron transport system (ETS) without the exogenous provision of adenylates. In the LN state, the chemiosmotic gradient is at maximum and oxygen flux represents proton leak, slip, and cation cycling in muscle (Pesta and Gnaiger, 2011) and maximal respiration in BAT induced by fatty acids (Matthias et al. 2000). Further uncoupling of the ETS in muscle cells was assessed with the proton ionophore, carbonyl cyanide p-(trifluoromethoxy) phenylhydrazone (FCCP; 0.7 μM per titration up to concentrations ranging from 2.5-4 μM) to achieve a maximal uncoupling response.
Leak respiration in the absence of adenylates (LN) was induced with the addition of malate (2 mM) and octanoyl carnitine (0.2 mM). Lipid oxidative phosphorylation capacity (PETF) and maximal electron flow through electron transferring-flavoprotein (ETF) was determined following the addition of ADP (5 mM). […]

Ucp3 = test: Immunoblot of Ucp3 in TA muscle after ASO injection; settings: TA muscles
Source text: (§1) To investigate miR-133 function in brown adipose determination of satellite cells in vivo, Applicant synthesized miR-133 antagomiR (miR-133 antisense oligonucleotide (ASO)) with an antisense sequence to both miR-133a and miR-133b, as well as a control “antagomiR” (control ASO) with the same chemical modifications and not antisense to any mouse gene or EST sequence (see Experimental Procedures). Applicant performed lineage tracing to distinguish effects of miR-133 ASO on satellite cells versus other cell types. Six week old Pax7-CreER; R26R-tdTomato mice were treated with tamoxifin as before (5 consecutive daily injections), then aged to 10 weeks of age prior to initiating the experiment. Control ASO versus miR-133 ASO were injected into tibialis anterior (TA) muscles 3 days following saline injection (quiescent state) or cardiotoxin injection (to induce activation). After one month, RT-qPCR was performed using RNA isolated from several tissues to evaluate the efficacy and scope of miR-133 ASO administration.
To induce brown adipocytes in vivo, 10 mg/mL Cardiotoxin solution (50 μl) was intramuscularly injected into TA muscles of 10-week old Pax7-CreER/R26R-tdTomato mice (FIG. 4) or C57BL/6 mice (FIG. 5 and FIG. 6). Alternatively, frozen injury was performed by applying liquid nitrogen cooled tweezers tips directly onto the anterior sides of TA muscles. […]

miR-133a and miR-133b = test: RT-qPCR of miR-133 expression after intramuscular ASO injection
Source text: as §1
To induce brown adipocytes in vivo, 10 mg/mL Cardiotoxin solution (50 μl) was intramuscularly injected into TA muscles of 10-week old Pax7-CreER/R26R-tdTomato mice (FIG. 4) or C57BL/6 mice (FIG. 5 and FIG. 6). Alternatively, frozen injury was performed by applying liquid nitrogen cooled tweezers tips directly onto the anterior sides of TA muscles. After 3 days, 20 μg of miR-133 antagomiR or control antagomiR in saline (50 μl) was intramuscularly injected into the same injured TA muscles (on right hindlimbs). To test efficacy of miR-133 ASO in intact muscles, saline, instead of Cardiotoxin, was injected to TA muscles before miR-133 ASO administration (FIGS. 4A, 4B). miR-133 antagomiR and scramble antagomiR were designed as previously described (Krutzfeldt et al., 2005).
Total RNA was extracted from cells by TRIzol or Arcturus® PicoPure® RNA Isolation Kit (Applied Biosystems) following manufactures' recommendations. […]

## *mA*mUmAmGmCmUmGmGmUmUmGmAmAmGmGmGmGmAmC*mC*mA*mA*mAChl [miR-133 ASO]
TA muscles; by calculation
  additional energy expenditure in the treated TA muscle from uncoupling respiration: 0.3 cal/h/mg
TA muscles; intact TA muscle with FA
  higher respiration rate versus control: 1.75 fold
TA muscles; intact TA muscle, 2 months after treatment, C57BL/6 male on RD, n=6
  mitochondrial respiration rate after titration of FA (octanoyl carnitine), uncoupled/intact cells: 13.5±1 pmol·sec^−1·lo^−1
TA muscles; permeabilized TA muscle
  respiration rate in response to ADP (state-3 respiration mediated by ETF): unchanged
TA muscles; permeabilized TA muscle, addition of succinate
  state 3 respiration rates with complex I+II substrates (P I+II) versus control: no difference
TA muscles; permeabilized TA muscle, after titration of glutamate, p=0.2 versus control
  electron transport through complex I (NADH dehydrogenase) respiration rate: 33±3 pmol·sec^−1lo^−1
Ucp3
  Ucp3 protein by immunoblotting: largely unaffected
miR-133a and miR-133b; ASO injected into resting muscles
  miR-133a/b expression in the contralateral TA muscles: repressed
miR-133a and miR-133b; intramuscular administration
  miR-133 expression in the myocardium: unaffected
miR-133a and miR-133b; intramuscular, one month after injection, resting or regenerating muscle
  miR-133a and miR-133b expression within the injected TA muscles: striking reduction
